According to patent US9808003B2, “Herbicidally active 2-(substituted-phenyl)-cyclopentane-1,3-dione compounds and derivatives thereof” (Syngenta Limited, priority 2013, dated 2017):

Assays:
Assay in all cases: Test 1A glasshouse assay, post-emergence herbicidal activity
Format in all cases: in vivo
[1] = system: Echinochloa crus-galli (ECHCG); details: Echinochloa crus-galli, 312 h, application rate 250 g/ha, 13 days after application, visual (100%=total damage; 0%=no damage), read-out: Post-emergence Herbicidal Activity (% Phytotoxicity) ECHCG
In short: (§1)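 Post-emergence: plants sprayed after 8 days' glasshouse growth (24/16° C, 14 h light, 65% humidity) with acetone/water (50:50) formulation containing 0.5% Tween 20. Visual % phytotoxicity (0 = none, 100 = total damage) scored 13 days after application.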

[2] = system: Alopecurus myosuroides (ALOMY); details: Alopecurus myosuroides, 312 h, application rate 250 g/ha, 13 days after application, visual (100%=total damage; 0%=no damage), read-out: Post-emergence Herbicidal Activity (% Phytotoxicity) ALOMY
In short: as §1

[3] = system: Lolium perenne (LOLPE); details: Lolium perenne, 312 h, application rate 250 g/ha, 13 days after application, visual (100%=total damage; 0%=no damage), read-out: Post-emergence Herbicidal Activity (% Phytotoxicity) LOLPE
In short: as §1

[4] = system: Avena fatua (AVEFA); details: Avena fatua, 312 h, application rate 250 g/ha, 13 days after application, visual (100%=total damage; 0%=no damage), read-out: Post-emergence Herbicidal Activity (% Phytotoxicity) AVEFA
In short: as §1

| Structure (SMILES) | pest or weed control at 250 g/ha [1] | pest or weed control at 250 g/ha [2] | pest or weed control at 250 g/ha [3] | pest or weed control at 250 g/ha [4] |
| --- | --- | --- | --- | --- |
| C#Cc1cc(C)c(C2C(=O)CC(CCNC(=O)c3ccccn3)C2=O)c(CC)c1 (stereo not shown) [Compound A85, N-[2-[3-(2-ethyl-4-ethynyl-6-methyl-phenyl)-2,4-dioxo-cyclopentyl]ethyl]pyridine-2-carboxamide] | 100% | 90% | 100% | 100% |
| CCc1cc(-c2ccc(F)cc2)cc(C)c1C1C(=O)CC(CCNC(=O)c2ccccn2)C1=O (stereo not shown) [Compound A86, N-[2-[3-[2-ethyl-4-(4-fluorophenyl)-6-methyl-phenyl]-2,4-dioxo-cyclopentyl]ethyl]pyridine-2-carboxamide] | 100% | 100% | 100% | 100% |
| CCC(CC1CC(=O)C(c2c(C)cc(C)cc2C)C1=O)NC(=O)c1ccccc1 (stereo not shown) [Compound A88] | 100% | 80% | 100% | 90% |
| Cc1cc(C)c(C2C(=O)CC(CCNC(=O)c3cccc(F)n3)C2=O)c(C)c1 (stereo not shown) [Compound A89A] | 100% | 100% | 100% | 100% |
| COc1cccc(C(=O)NCCC2CC(=O)C(c3c(C)cc(C)cc3C)C2=O)n1 (stereo not shown) [Compound A91] | 80% | 80% | 80% | 80% |
| CCOc1cccc(C(=O)NCCC2CC(=O)C(c3c(C)cc(C)cc3C)C2=O)n1 (stereo not shown) [Compound A92] | 70% | 80% | 70% | 80% |
| Cc1cc(C)c(C2C(=O)CC(CCNC(=O)c3cccc(-c4ccccc4)n3)C2=O)c(C)c1 (stereo not shown) [Compound A93] | 50% | 70% | 70% | 40% |
| Cc1cc(C)c(C2C(=O)CC(CCNC(=O)c3cccc(C(F)(F)F)n3)C2=O)c(C)c1 (stereo not shown) [Compound A94] | 90% | 90% | 80% | 100% |
| Cc1cc(C)c(C2C(=O)CC(CCNC(=O)c3ncccc3F)C2=O)c(C)c1 (stereo not shown) [Compound A96] | 100% | 100% | 100% | 100% |
| Cc1cc(C)c(C2C(=O)CC(CCNC(=O)c3ccc(F)cn3)C2=O)c(C)c1 (stereo not shown) [Compound A97] | 100% | 100% | 100% | 100% |
| Cc1cc(-c2ncc(Cl)cc2F)cc(C)c1C1C(=O)CC(CCNC(=O)c2ccccn2)C1=O (stereo not shown) [Compound A102] | 100% | 100% | 100% | 100% |
| Cc1cc(-c2ccc(Cl)cc2)cc(C)c1C1C(=O)CC(CCNC(=O)c2ccccn2)C1=O (stereo not shown) [Compound A104] | 100% | 90% | 100% | 90% |
| Cc1cc(Cl)c(C2C(=O)CC(CCNC(=O)c3ccccn3)C2=O)c(Cl)c1 (stereo not shown) [Compound A105] | 100% | 40% | 90% | 90% |
| O=C(NCCC1CC(=O)C(c2c(Cl)cc(-c3ccc(F)cc3)cc2Cl)C1=O)c1ccccn1 (stereo not shown) [Compound A106] | 100% | 90% | 100% | 100% |
| Cc1cc(-c2cc(F)cc(F)c2)cc(C)c1C1C(=O)CC(CCNC(=O)c2ccccn2)C1=O (stereo not shown) [Compound A109] | 100% | 100% | 100% | 100% |
| Cc1cc(-c2ccc(F)c(Cl)c2)cc(C)c1C1C(=O)CC(CCNC(=O)c2ccccn2)C1=O (stereo not shown) [Compound A110] | 100% | 90% | 100% | 100% |
| Cc1cc(-c2cccc(Cl)c2)cc(C)c1C1C(=O)CC(CCNC(=O)c2ccccn2)C1=O (stereo not shown) [Compound A111, N-[2-[3-[4-(3-chlorophenyl)-2,6-dimethyl-phenyl]-2,4-dioxo-cyclopentyl]ethyl]pyridine-2-carboxamide] | 100% | 100% | 100% | 100% |

| Structure (SMILES) | pest or weed control at 250 g/ha [1] | pest or weed control at 250 g/ha [2] | pest or weed control at 250 g/ha [3] | pest or weed control at 250 g/ha [4] |
| --- | --- | --- | --- | --- |
| CC#Cc1cc(C)c(C2C(=O)CC(CCNC(=O)c3cccc(F)n3)C2=O)c(C)c1 (stereo not shown) [Compound A114] | 100% | 100% | 100% | 100% |
| CC#Cc1cc(C)c(C2C(=O)CC(CCNC(=O)C(C)(C)C)C2=O)c(C)c1 (stereo not shown) [Compound A115] | 100% | 100% | 100% | 100% |
| CC#Cc1cc(C)c(C2C(=O)CC(CCNC(=O)c3ccc(F)cc3)C2=O)c(C)c1 (stereo not shown) [Compound A116] | 100% | 90% | 100% | 100% |
| Cc1cc(-c2ccc(F)cn2)cc(C)c1C1C(=O)CC(CCNC(=O)c2ccccn2)C1=O (stereo not shown) [Compound A117] | 100% | 100% | 100% | 100% |
| Cc1cc(C)c(C2C(=O)CC(CCNC(=O)c3ccc(Cl)cn3)C2=O)c(C)c1 (stereo not shown) [Compound A118] | 100% | 100% | 100% | 100% |
| Cc1ccnc(C(=O)NCCC2CC(=O)C(c3c(C)cc(C)cc3C)C2=O)c1 (stereo not shown) [Compound A119] | 100% | 100% | 90% | 90% |
| Cc1cc(C)c(C2C(=O)CC(CCNC(=O)c3cc(Br)ccn3)C2=O)c(C)c1 (stereo not shown) [Compound A121] | 100% | 90% | 100% | 90% |
| COc1cc(C)c(C2C(=O)CC(CCNC(=O)c3ccccn3)C2=O)c(C)c1 (stereo not shown) [Compound A122] | 100% | 100% | 100% | 90% |
| Cc1cccc(C)c1C1C(=O)CC(CCNC(=O)c2ccccn2)C1=O (stereo not shown) [Compound A123] | 90% | 100% | 100% | 100% |
| Cc1cc(Cl)cc(C)c1C1C(=O)CC(CCNC(=O)c2ccccn2)C1=O (stereo not shown) [Compound A124] | 100% | 100% | 100% | 100% |
| Cc1cc(Br)cc(C)c1C1C(=O)CC(CCNC(=O)c2ccccn2)C1=O (stereo not shown) [Compound A125] | 100% | 100% | 100% | 100% |
| Cc1cc(OCC(F)(F)F)cc(C)c1C1C(=O)CC(CCNC(=O)c2ccccn2)C1=O (stereo not shown) [Compound A126, N-[2-[3-[2,6-dimethyl-4-(2,2,2-trifluoroethoxy)phenyl]-2,4-dioxo-cyclopentyl]ethyl]pyridine-2-carboxamide] | 100% | 100% | 100% | 100% |
| Cc1cc(Oc2ncc(Cl)cc2F)cc(C)c1C1C(=O)CC(CCNC(=O)c2ccccn2)C1=O (stereo not shown) [Compound A126A] | 90% | 90% | 90% | 90% |
| Cc1cc(Oc2ncc(C(F)(F)F)cc2Cl)cc(C)c1C1C(=O)CC(CCNC(=O)c2ccccn2)C1=O (stereo not shown) [Compound A126B, N-[2-[3-[4-[[3-chloro-5-(trifluoromethyl)-2-pyridyl]oxy]-2,6-dimethyl-phenyl]-2,4-dioxo-cyclopentyl]ethyl]pyridine-2-carboxamide] | 100% | 90% | 90% | 90% |
| Cc1cc(-n2cc(Cl)cn2)cc(C)c1C1C(=O)CC(CCNC(=O)c2ccc(F)cn2)C1=O (stereo not shown) [Compound A129] | 100% | 100% | 100% | 100% |
| Cc1cccc(C(=O)NCCC2CC(=O)C(c3c(C)cc(-n4cc(Cl)cn4)cc3C)C2=O)n1 (stereo not shown) [Compound A130] | 80% | 30% | 80% | 80% |
| Cc1cc(-n2cc(Cl)cn2)cc(C)c1C1C(=O)CC(CCNC(=O)c2nc(Cl)ccc2Cl)C1=O (stereo not shown) [Compound A131] | 100% | 100% | 100% | 100% |
